Source: ChEMBL document CHEMBL3886335, “Difluorolactam compounds as EP4 receptor-selective agonists for use in the treatment of EP4-mediated diseases and conditions” (2015)

Molecular target: Prostaglandin E2 receptor EP4 subtype (Homo sapiens, UniProt P35408)
Assay: The filters are dried then counted for radioactivity in a scintillation counter (Topcount, Packard) using a scintillation cocktail (Microscint 0, Packard).
Type: cell membranes

Prostaglandin E2 receptor EP4 subtype, sequence (P35408 whole entry): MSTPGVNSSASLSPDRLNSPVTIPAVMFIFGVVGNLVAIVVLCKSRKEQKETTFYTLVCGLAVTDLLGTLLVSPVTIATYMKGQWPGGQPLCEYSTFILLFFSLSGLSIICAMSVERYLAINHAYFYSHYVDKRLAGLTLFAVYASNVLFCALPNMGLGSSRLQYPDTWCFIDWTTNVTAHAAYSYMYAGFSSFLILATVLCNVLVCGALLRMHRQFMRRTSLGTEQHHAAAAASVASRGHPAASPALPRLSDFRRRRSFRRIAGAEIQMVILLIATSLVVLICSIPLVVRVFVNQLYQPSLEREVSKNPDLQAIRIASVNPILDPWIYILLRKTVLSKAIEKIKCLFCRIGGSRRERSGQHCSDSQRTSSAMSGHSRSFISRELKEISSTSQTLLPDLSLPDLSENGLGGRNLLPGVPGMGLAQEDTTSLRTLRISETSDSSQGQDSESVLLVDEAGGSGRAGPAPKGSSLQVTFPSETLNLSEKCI

CCC#CC[C@H](C)[C@H](O)/C=C/[C@H]1CC(F)(F)C(=O)N1CCCc1ccc(C(=O)O)s1
IC50: 3.3 nM
Ki: 1.2 nM
